In US9581606B2, “Method for determining depression, kit for analyzing serotonin transporter, and kit for analyzing ubiquitinated serotonin transporter in blood” (MEIJO UNIVERSITY, priority 2011, dated 2017):
Where a SMILES comes first, the peptide text is derived from it. The star is where a group is joined. Cbz = O=C(OCc1ccccc1)*

Experiments:
[1] = system: serotonin transporter protein; experiment: Expression amount of serotonin transporter protein in established lymphocytes (Western blotting); assay type: cell-based, human; conditions: for expression amount of the serotonin transporter: MG132 20 μM, 4 hours, control = healthy subjects without MG132
Protocol: (§1) The mouse brain sample, cells, and established lymphocytes were subjected to ultrasonic fragmentation at 4° C. using a sonicator in a lysis buffer [20 mM Tris-HCl, 150 mM NaCl, 50 mM NaF, 1 mM EDTA, 1 mM EGTA, 1% (w/v) TRITONX-100, 1 mM sodium orthovanadate, 0.1% (w/v) SDS, 1% (w/v) sodium deoxycholate, 0.5 mM dithiothreitol, 10 mM sodium pyrophosphate decahydrate, 1 mM phenylmethylsulfonyl fluoride, 10 μg/mL aprotinin, 10 μg/mL leupeptin, and 10 μg/mL pepstatin (pH 7.4)], and thus a homogenate was obtained through these operations. The homogenate was centrifuged for 20 minutes at 4° C. and 13000×g, and the supernatant thus obtained was used. A sample buffer [0.125 M Tris-HCl (pH 6.8), 2% (w/v) SDS, 5% (w/v) glycerol, 0.002% (w/v) bromophenol blue, and 5% (w/v) 2-mercaptoethanol] was added to each of the supernatant samples whose protein content had been adjusted, and then boiled at 95° C. for 5 minutes. Thereafter, the protein (20 μg) was subjected to electrophoresis using a 10% polyacrylamide gel, the protein was transferred to a polyvinylidene difluoride (PVDF) membrane (Millipore Corporation, Billerica, Mass., USA), and blocked using Detector Block Kit (Kirkegaard and Perry Laboratories, Gaithersburg, Md., USA). A primary antibody (anti-SERT) (Millipore, Billerica, Mass.) against the serotonin transporter protein was added to the PVDF membrane, allowed to stand overnight in a refrigerator (4° C.), and then a secondary antibody (HRP-conjugated anti-rabbit IgG) (Kirkegaard and Perry Laboratories) was added, and allowed to stand at room temperature for 3 hours. The luminescence due to the immune complex was detected using ECL (GE Healthcare Biosciences, Piscataway, N.J., USA), which is a Western blotting detection reagent, and the expression amount was calculated by the image analysis of the luminescence intensity.
Subsequently, in order to determine the expression amount of the β-actin protein as the endogenous reference material, stripping was carried out, a primary antibody (anti-β-actin) (Santa Cruz Biotechnology, Santa Cruz, Calif.) was added, and incubated. In the result thus obtained, the band of the serotonin transporter protein was corrected by the band of the β actin protein, and the expression amount to the control group was expressed in terms of the percentage (%).
Each of the blood samples aseptically collected from the above objects was diluted two folds with a sterile normal saline solution. Subsequently, the diluted blood sample was quietly poured into the tube containing 3.5 ml of the Ficoll-Paque liquid (General Electric Company, Uppsala, Sweden), and centrifuged at 600×g for 30 minutes. […]

[2] = system: ubiquitinated serotonin transporter protein; experiment: Expression amount of ubiquitinated serotonin transporter protein in established lymphocytes (UBIQAPTURE-Q kit, Western blotting); assay type: cell-based, human; conditions: MG132 20 μM, 4 hours
Protocol: as §1, with “A primary antibody (anti-SERT) (Millipore, Billerica, Mass.) against the serotonin transporter protein was added to the PVDF membrane, allowed to stand overnight in a refrigerator (4° C.), and then a secondary antibody (HRP-conjugated anti-rabbit IgG) (Kirkegaard and Perry Laboratories) was added, and allowed to stand at room temperature for 3 hours.” left out, “intensity. […]” for “intensity.”
According to the procedure in the above-described A (5), the ubiquitinated protein was isolated from the homogenate homogenized with a lysis buffer using UBIQAPTURE-Q kit (Enzo Life Sciences International, Inc, Plymouth Meeting, Pa.), and the ubiquitinated serotonin transporter protein was detected by Western blotting under the same conditions as in the A (5). […]

wild type C57BL/6J mouse = experiment: Forced swimming test, control mouse; assay type: in vivo
Protocol: (§2) Experimental equipment and procedure: the experimental equipment was a water tank (diameter 15 cm×height 20 cm) containing water (water temperature about 22° C.×depth 13 cm). The wild type C57BL/6J mouse as the control or the model mouse was placed in the water tank, and immediately after that, the immobility time was measured using Scanet MV-10AQ (Brainscience Idea, Co., Ltd. Osaka, Japan) for 10 minutes at intervals of 1 minute.
(§3) 5 or 10 mg/kg sertraline (Pfizer, Groton, CT) suspended in 0.3% carboxymethyl cellulose sodium, and 10 or 20 mg/kg imipramine (Sigma, St. Louis, Mo.) dissolved in a normal saline solution were intraperitoneally administered 30 minutes before the main test. As the control, the solvent was intraperitoneally administered.

[3] = system: MAGE-D1 gene-deficient mouse; experiment: Forced swimming test, model mouse; assay type: in vivo; conditions: for effect on the increase of the immobility time: forced swimming test (FIG. 1)
Excerpt: The targeting vector (Stratagene: pBlueScript), which allow homologous recombination between the MAGE-D1 gene (Gene bank: NM_019791.2) exon and the drug (G418)-resistant gene (GenBank: U00004.1), was electroporated into the embryonic stem (ES) cells (acquired from Research Institute of National Center for Geriatrics and Gerontology) derived from the 129Svj mouse, and the drug-resistant colony was selected. The homologous recombinant was identified from the selected resistant colony by Southern blotting. The desired homologous recombinant ES cell clone thus identified was injected into the blastocyst stage embryo of the C57BL/6J mouse, thereby making a chimera mouse. The chimera mouse was mated with the wild type C57BL/6J mouse, thereby making a hetero MAGE-D1 gene-deficient mouse of F1 generation. The wild type C57BL/6J was mated with the hetero MAGE-D1 gene-deficient mouse up to the F10 generation, and the mouse having 99.9 percent (as a result of one mating with the C57BL/6J mouse, about half the genes of the newborn mouse are derived from the C57BL/6J mouse used for mating; in other words, as a result of the n times of mating with the C57BL/6J mouse, about [1−(1/2)^n+1]×100% genes are likely derived from the C57BL/6J mouse) C57BL/6J genetic background was used. The mouse having the genetic background was used as the MAGE-D1 gene-deficient mouse (hereinafter may be referred to as model mouse) in the following test.
as §2, §3

[4] = established lymphocytes from patients with depression to whom the antidepressant was not effective
[5] = 10 mg/kg intraperitoneally 30 minutes before test
[6] = 20 mg/kg intraperitoneally 30 minutes before test
[7] = 5 mg/kg intraperitoneally 30 minutes before test

| SMILES | expression amount of the serotonin transporter ([1]; established lymphocytes from healthy subjects) | expression amount of the serotonin transporter ([1]; established lymphocytes from patients with depression to whom the antidepressant was effective) | expression amount of the serotonin transporter [1, 4] | effect of addition on the expression amount of the serotonin transporter ([1]; established lymphocytes of the patients with depression, regardless of effect of the antidepressant) | expression amount of the ubiquitinated serotonin transporter ([2]; established lymphocytes from healthy subjects, control = healthy subjects without MG132) | expression amount of the ubiquitinated serotonin transporter ([2]; established lymphocytes from patients with depression to whom fluvoxamine was effective) | expression amount of the ubiquitinated serotonin transporter [2, 4] | average of the immobility time ratio (wild type C57BL/6J mouse; [5]) | average of the immobility time ratio (wild type C57BL/6J mouse; [6]) | average of the immobility time ratio [3, 5] | average of the immobility time ratio [3, 6] | effect on the increase of the immobility time [3] | average of the immobility time ratio (wild type C57BL/6J mouse; [7]) | average of the immobility time ratio [3, 7] |
| --- | --- | --- | --- | --- | --- | --- | --- | --- | --- | --- | --- | --- | --- | --- |
| CC(C)C[C@@H](C=O)NC(=O)[C@H](CC(C)C)NC(=O)[C@H](CC(C)C)NC(=O)OCc1ccccc1 [MG132] (Cbz-Leu-Leu-Leu-aldehyde) | 173.8% | 141.9% | 143.6% | did not significantly increase | 130.6% | 103.4% | 88.5% |  |  |  |  |  |  |  |
| CN(C)CCCN1c2ccccc2CCc2ccccc21 [imipramine] |  |  |  |  |  |  |  | 47.7% | 39.0% | 60.2% | 40.6% | significantly and dose-dependently decreased |  |  |
| CN[C@H]1CC[C@@H](c2ccc(Cl)c(Cl)c2)c2ccccc21 [sertraline] |  |  |  |  |  |  |  | 37.7% |  | 45.7% |  | significantly and dose-dependently decreased | 37.4% | 56.3% |
